Patent US12275733B2, “Substituted pyrido[3,4-b]indoles for the treatment of cartilage disorders” (Sanofi, priority 2016, dated 2025)

System: ATDC5 cells
Experiment: Chondrogenesis activity assay in ATDC5 cells (collagen type II induction, immunofluorescence)
Assay type: cell-based, mouse
Conditions: Mus musculus; for EC50: collagen type II induction in ATDC5 cells, concentration reaching 50% of maximum induction; for Emax: maximum percent induction of collagen type II relative to internal reference compound at 10 μM, ATDC5 cells
Method: A) Chondrogenesis Activity Assay in ATDC5 Cells
The chondrogenic potential of the compounds of the invention was determined using clonal mouse chondrogenic ATDC5 cells (T. Atsumi et al., Cell Differ. Dev. 1990, 30, 109-116). ATDC5 cells are derived from mouse embryonic AT805 teratocarcinoma cells and are used frequently to study the multistep chondrogenic differentiation process from precursor cells into chondrocytes (C. Shukunami et al., Exp. Cell Res. 1998, 241, 1-11; H. Aklyami et al., J. Bone Miner. Res. 1996, 11, 22-28; H. Akiyami et al., Biochem. Biophys. Res. Commun. 1997, 235, 142-147; C. Shukunami et al., J. Cell Biol. 1996, 133, 457-468; C. Shukunami et al., J. Bone Miner. Res. 1997, 12, 1174-1188). Undifferentiated ATDC5 cells grow in vitro until confluence, showing a fibroblast-like morphology. In the presence of insulin, cells undergo transient condensation and form numerous nodular structures (cartilage nodules). The cartilagenous nature of these nodules was shown by Alcian Blue staining as evidence of the production of proteoglycan (aggrecan) and collagen type II expression (by expression analysis), both molecular markers of chondrocytes (C. Shukunami et al., J. Cell Biol. 1996, 133, 457-468).
Chondrogenic differentiation of ATDC5 cells into chondrocytes by the compounds of the invention was determined by measuring the induction of type II collagen protein as a marker of chondrocytes, a structural component of the extracellular matrix which constitutes more than 80% of cartilage mass (D. R. Eyre, Clin. Orthop. Relat. Res. 2004, 427 Suppl, S118-S122). ATDC5 cells were obtained from RIKEN and cultured as monolayer in basal culture medium (Dulbecco's Modified Eagle Medium/Nutrient Mixture F-12 (DMEM/F12, Invitrogen, #31331-093) supplemented with 10 μg/ml Transferrin (Roche, #10652 202001), 3×10E−8 M sodium seienite (Sigma, #S-5261) and 5% Fetal Calf Serum (FCS Gold, PAA, #A15-251)), at 37° C., and 5% CO2 in plastic flasks of 75 cm^2 or 300 cm^2 subconfluently for propagation. ATDC5 cells were harvested and resuspended in differentiation culture medium that consisted of basal culture medium complemented with 10 μg/ml insulin (Sigma, #19278), to initiate chondrogenic differentiation. For studying the effect of test compounds, the ATDC5 cells were plated in 96-well plates (3.0×10E4 cells per well in 200 μl of differentiation culture medium). Test compounds dissolved in DMSO were added to yield increasing compound concentrations, typically from 40 nM to 10 μM, and a final DMSO concentration of 0.1%. On each 96-well plate, control wells containing no test compound but the same concentration of DMSO, i.e. untreated cells, were included and used as reference for the determination of the effect of the test compounds on the cells, and wells containing an internal reference compound at a concentration of 10 μM were included and used as positive control and for standardizing the results. Cells in the wells were incubated for 4 days at 37° C., and 5% CO2, followed by quantification of intracellular collagen type II.
Quantification of collagen type II in the ATDC5-cells was done by immunofluorescence staining of collagen type II, and fluorescence intensity was measured using a cellular high content imaging system (ImageXpress, Molecular Device). For immunofluorescence staining of intracellular collagen, medium was removed after compound incubation and cells were fixed with 200 μl/well methanol/water (95%/5%). Cells were permeabilized in 200 μl/well phosphate-buffered saline (PBS) containing 0.2% Triton X100 for 15 min and, after removal of the solution, blocked for 30 min with 200 μl/well PBS/0.2% Triton X100 containing 1% bovine serum albumin (BSA) to avoid unspecific binding. After the blocking step, the solution was removed and collagen type II staining solution was added. […]

SMILES	EC50 [nM]	Emax [%]
Cc1nccc2c1[nH]c1c(-c3cccc(CCO)c3)cc(Cl)cc12 [Example 248, 2-[3-(6-Chloro-1-methyl-9H-pyrido[3,4-b]indol-8-yl)-phenyl]-ethanol]	> 3300	20 to 50
Cc1nccc2c1[nH]c1c(-c3cccc(OCc4nccc5ccccc45)c3)cc(Cl)cc12 [Example 269, 6-Chloro-8-[3-(isoquinolin-1-ylmethoxy)-phenyl]-1-methyl-9H-pyrido[3,4-b]indole]	> 3300	20 to 50
COc1cc(-c2cc(Cl)cc3c2[nH]c2c(C)nccc23)ccc1OCc1ccccc1 [Example 222, 8-(4-Benzyloxy-3-methoxy-phenyl)-6-chloro-1-methyl-9H-pyrido[3,4-b]indole]	> 10000	< 20
Clc1ccc(-c2cc(Cl)cc3c4ccncc4n(CC4CC4)c23)cc1 [Example 291, 6-Chloro-8-(4-chloro-phenyl)-9-cyclopropylmethyl-9H-pyrido[3,4-b]indole]	1700	50 to 80
Cc1nccc2c3cc(Cl)cc(-c4cnn(Cc5cccnc5)c4)c3n(CC3CC3)c12 [Example 290, 6-Chloro-9-cyclopropylmethyl-1-methyl-8-(1-pyridin-3-ylmethyl-1H-pyrazol-4-yl)-9H-pyrido[3,4-b]indole]	> 10000	20 to 50
CCCn1cc(-c2cc(Cl)cc3c4ccncc4n(CC(F)(F)F)c23)cn1 [Example 161, 6-Chloro-8-(1-propyl-1H-pyrazol-4-yl)-9-(2,2,2-trifluoro-ethyl)-9H-pyrido[3,4-b]indole]	2000	> 80
Cc1nccc2c1[nH]c1c(-c3ccc(Cl)nc3Cl)cc(Cl)cc12 [Example 64, 6-Chloro-8-(2,6-dichloro-pyridin-3-yl)-1-methyl-9H-pyrido[3,4-b]indole]	3900	> 80
FC(F)(F)Cn1c2cnccc2c2cc(Cl)cc(-c3ccccc3)c21 [Example 128, 6-Chloro-8-phenyl-9-(2,2,2-trifluoro-ethyl)-9H-pyrido[3,4-b]indole]	3900	< 20
CCn1c2c(-c3ccc(Oc4ccccc4)cc3)cc(Cl)cc2c2ccnc(C)c21 [Example 246, 6-Chloro-9-ethyl-1-methyl-8-(4-phenoxy-phenyl)-9H-pyrido[3,4-b]indole]	2900	50 to 80
CCn1c2c(-c3cc[nH]n3)cc(Cl)cc2c2ccnc(C)c21 [Example 234, 6-Chloro-9-ethyl-1-methyl-8-(1H-pyrazol-3-yl)-9H-pyrido[3,4-b]indole]	5800	50 to 80
CCn1c2c(-c3cccc(CN4CCOCC4)c3)cc(Cl)cc2c2ccnc(C)c21 [Example 254, 6-Chloro-9-ethyl-1-methyl-8-(3-morpholin-4-ylmethyl-phenyl)-9H-pyrido[3,4-b]indole]	> 3300	< 20
Cc1nccc2c1[nH]c1c(-c3cccc(OCc4ncc5ccccc5n4)c3)cc(Cl)cc12 [Example 274, 6-Chloro-1-methyl-8-[3-(quinazolin-2-ylmethoxy)-phenyl]-9H-pyrido[3,4-b]indole]	> 3300	< 20

Compounds with a lower EC50, results first:

EC50 [nM]	SMILES	Emax [%]
41	Cc1cc(-c2cc(Cl)cc3c4ccnc(C)c4n(CC4CC4)c23)cnc1C#N [Example 48, 5-(6-Chloro-9-cyclopropylmethyl-1-methyl-9H-pyrido[3,4-b]indol-8-yl)-3-methyl-pyridine-2-carbonitrile]	< 20
490	FC(F)(F)Cn1c2cnccc2c2cc(Cl)cc(-c3cnn(Cc4ccncc4)c3)c21 [Example 112, 6-Chloro-8-(1-pyridin-4-ylmethyl-1H-pyrazol-4-yl)-9-(2,2,2-trifluoro-ethyl)-9H-pyrido[3,4-b]indole]	> 80
990	FC(F)(F)Cn1c2cnccc2c2cc(Cl)cc(-c3cnn(Cc4ccccn4)c3)c21 [Example 168, 6-Chloro-8-(1-pyridin-2-ylmethyl-1H-pyrazol-4-yl)-9-(2,2,2-trifluoro-ethyl)-9H-pyrido[3,4-b]indole]	> 80
520	CCn1c2cnccc2c2cc(Cl)cc(-c3ccc(OC)cc3)c21 [Example 142, 6-Chloro-9-ethyl-8-(4-methoxy-phenyl)-9H-pyrido[3,4-b]indole]	> 80
1600	Cc1nccc2c1[nH]c1c(-c3ccc4c(c3)CC(C)O4)cc(Cl)cc12 (centres unmarked) [Example 23, 6-Chloro-1-methyl-8-(2-methyl-2,3-dihydro-benzofuran-5-yl)-9H-pyrido[3,4-b]indole]	50 to 80
640	Cc1nccc2c1[nH]c1c(-c3ccc(OCc4ccccn4)cc3)cc(Cl)cc12 [Example 202, 6-Chloro-1-methyl-8-[4-(pyridin-2-ylmethoxy)-phenyl]-9H-pyrido[3,4-b]indole]	> 80
580	Cc1nccc2c1[nH]c1c(-c3ccc(Cl)nc3)cc(Cl)cc12 [Example 77, 6-Chloro-8-(6-chloro-pyridin-3-yl)-1-methyl-9H-pyrido[3,4-b]indole]	> 80
41	CCn1c2cnccc2c2cc(Cl)cc(-c3cccc(OC)c3)c21 [Example 146, 6-Chloro-9-ethyl-8-(3-methoxy-phenyl)-9H-pyrido[3,4-b]indole]	< 20
250	CCn1c2c(-c3cn[nH]c3)cc(Cl)cc2c2ccnc(C)c21 [Example 239, 6-Chloro-9-ethyl-1-methyl-8-(1H-pyrazol-4-yl)-9H-pyrido[3,4-b]indole]	50 to 80
640	COc1ccc(-c2cc(Br)cc3c2[nH]c2c(C)nccc23)cc1 [Example 188, 6-Bromo-8-(4-methoxy-phenyl)-1-methyl-9H-pyrido[3,4-b]indole]	> 80
720	Cc1nccc2c1[nH]c1c(-c3ccc(Cl)cc3Cl)cc(Cl)cc12 [Example 190, 6-Chloro-8-(2,4-dichloro-phenyl)-1-methyl-9H-pyrido[3,4-b]indole]	> 80
270	CCn1c2c(-c3ccc(CN4CCOCC4)cc3)cc(Cl)cc2c2ccnc(C)c21 [Example 30, 6-Chloro-9-ethyl-1-methyl-8-(4-morpholin-4-ylmethyl-phenyl)-9H-pyrido[3,4-b]indole]	> 80
1500	FC(F)(F)Cn1c2cnccc2c2cc(Cl)cc(-c3cnc4[nH]ccc4c3)c21 [Example 71, 6-Chloro-8-(1H-pyrrolo[2,3-b]pyridin-5-yl)-9-(2,2,2-trifluoro-ethyl)-9H-pyrido[3,4-b]indole]	< 20
680	Cc1ccc(-c2cc(Cl)cc3c2[nH]c2c(C)nccc23)cn1 [Example 95, 6-Chloro-1-methyl-8-(6-methyl-pyridin-3-yl)-9H-pyrido[3,4-b]indole]	50 to 80
41	Cc1nccc2c3cc(Cl)cc(-c4cnc5c(c4)OCCN5C)c3n(CC3CC3)c12 [Example 49, 6-Chloro-9-cyclopropymethyl-1-methyl-8-(4-methyl-3,4-dihydro-2H-pyrido[3,2-b][1,4]oxazin-7-yl)-9H-pyrido[3,4-b]indole]	< 20
420	CCn1c2c(-c3cnn(CC4OCCO4)c3)cc(Cl)cc2c2ccnc(C)c21 [Example 276, 6-Chloro-8-(1-[1,3]dioxolan-2-ylmethyl-1H-pyrazol-4-yl)-9-ethyl-1-methyl-9H-pyrido[3,4-b]indole]	> 80
